Laboratory results from publication PMC12518634, “The noncanonical function of liver-type phosphofructokinase potentiates the efficacy of HDAC inhibitors in cancer” (Signal Transduction and Targeted Therapy, 2025).
Where two headings read alike, the source gives them in different places.

Experiments:
[1] = tested on: 1405R3; test: High-throughput drug screen, CellTiter-Glo viability, 72 h; assay type: cell-based, human; design: AUC: scale not given here; settings: for EC50: Homo sapiens, 72 h
Summary of the method: (§1)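 Cholangiocarcinoma cells were seeded at 3000/well in 384-well plates and dosed after 24 h. Drugs were tested at 10, 1, 0.1, 0.01 and 0.001 μM in duplicate for 72 h, with viability read by CellTiter-Glo luminescence.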

[2] = tested on: 783C-6; test: as above; assay type: cell-based, human; design: AUC: scale not given here; settings: for EC50: Homo sapiens, 72 h
Summary of the method: as §1

[3] = tested on: CC52 PDX tumors; test: CCA patient-derived xenograft tumor growth; assay type: in vivo; settings: n = 5 mice per group, Fig. 2d, e
From the text: (§2) For patient-derived xenograft (PDX) models, fresh tumor samples were cut into small pieces of approximately 1 mm³ and subcutaneously transplanted into the flanks of NSG mice (P1 generation). After 2 to 3 months of tumor growth, the established PDX tumors were transplanted into subsequent generations (P2-Pn) under the skin of nude or NSG mice. When the tumors reached approximately 100 mm^3, the mice were randomly allocated to different groups and treated with HDAC inhibitors or saline. Tumor volume calculation, euthanasia of the mice, and specimen preparation followed the procedures of the CDX model.

[4] = tested on: CC56 PDX tumors; test: CCA patient-derived xenograft tumor growth; assay type: in vivo; settings: n = 5 mice per group, Fig. 2d, e
From the text: as §2

[5] = tested on: CC57 PDX tumors; test: CCA patient-derived xenograft tumor growth; assay type: in vivo; settings: n = 5 mice per group, Fig. 2d, e
From the text: as §2

[6] = tested on: CC11 PDX tumors; test: CCA patient-derived xenograft tumor growth; assay type: in vivo; settings: n = 5 mice per group, Fig. 2d, e
From the text: as §2

[7] = tested on: CC16 PDX tumors; test: CCA patient-derived xenograft tumor growth; assay type: in vivo; settings: n = 5 mice per group, Fig. 2d, e
From the text: as §2

[8] = tested on: CC51 PDX tumors; test: CCA patient-derived xenograft tumor growth; assay type: in vivo; settings: n = 5 mice per group, Fig. 2d, e
From the text: as §2

[9] = tested on: 783C-6 cells; test: Cell viability assay (CellTiter-Glo, 72 h), GI50; assay type: cell-based; settings: Homo sapiens
Procedure: (§3) Cell viability was assessed using the CellTiter-Glo luminescent cell viability assay (Vazyme, DD1101) following the manufacturer’s instructions. Briefly, 5000 cells per well were seeded into a 96-well white bottom permeable plate. Different concentrations of drugs were added to each well. After 72 h of treatment, a mixture of CellTier reagent and serum-free culture medium was prepared at a 1:1 ratio, and 100 μL of the mixture was added to each well. After incubation at 37 °C for 15 min, the luminescence was measured using a microplate reader (Synergy H1, Biotek). All the experiments were conducted in triplicate. Cell viability (relative luminescence) was defined as the luminescence of the drug treatment relative to that of the vehicle control.

[10] = tested on: SK-CHA-1 cells; test: Cell viability assay (CellTiter-Glo, 72 h), GI50; assay type: cell-based; settings: Homo sapiens, Fig. 1b
Procedure: as §3

[11] = tested on: HuCCT1 cells; test: Cell viability assay (CellTiter-Glo, 72 h), GI50; assay type: cell-based; settings: Homo sapiens
Procedure: as §3

[12] = tested on: 1405R3 cells; test: Cell viability assay (CellTiter-Glo, 72 h), GI50; assay type: cell-based; settings: Homo sapiens, Fig. 1b
Procedure: as §3

[13] = tested on: RBE cells; test: Cell viability assay (CellTiter-Glo, 72 h), GI50; assay type: cell-based; settings: Homo sapiens, Fig. 1b
Procedure: as §3

[14] = tested on: SK-CHA-1 xenografts; test: Cell-derived xenograft tumor growth; assay type: in vivo; settings: mice xenografted with PFKL high-expressed SK-CHA-1 cells; n = 5 mice per group; Fig. 2b, c
Procedure: (§4) For cell-derived xenograft (CDX) models, tumor cells were resuspended in saline and combined with an equal volume of Matrigel. A total of 1 × 10^6 cells in a 0.1 ml mixture were injected subcutaneously into the right flank of 6-week-old male nude mice. Once the tumor volume reached approximately 100 mm³, the mice were randomly grouped and treated with drugs or saline. The tumor volume was measured every 3 days and calculated via the following formula: tumor volume = (length × width^2) × 0.5. When the tumor volume reached 1500 mm³, the mice were euthanized via CO2 asphyxiation. The tumor tissues were harvested for further study.

[15] = tested on: 1405R3 xenografts; test: Cell-derived xenograft tumor growth; assay type: in vivo; settings: mice xenografted with PFKL low-expressed 1405R3 cells; n = 5 mice per group; Fig. 2b, c
Procedure: as §4

[16] = tested on: 783C-6 xenografts; test: Cell-derived xenograft tumor growth; assay type: in vivo; settings: mice xenografted with PFKL high-expressed 783C-6 cells, n = 5 mice per group, Fig. 2b
Procedure: as §4

[17] = tested on: TFK1 xenografts; test: Cell-derived xenograft tumor growth; assay type: in vivo; settings: mice xenografted with PFKL high-expressed TFK1 cells; n = 5 mice per group; Fig. 2b, c
Procedure: as §4

[18] = tested on: HuCCT1 xenografts; test: Cell-derived xenograft tumor growth; assay type: in vivo; settings: mice xenografted with PFKL low-expressed HuCCT1 cells; n = 5 mice per group; Fig. 2b, c
Procedure: as §4

[19] = 783C-6 after interference with LHCGR si-1, Fig. 1f
[20] = 783C-6 after interference with LHCGR si-2, Fig. 1f
[21] = 783C-6 after interference with NFIA si-1, Fig. 1f
[22] = 783C-6 after interference with NFIA si-2, Fig. 1f
[23] = 783C-6 after interference with PFKFB1 si-1, Fig. 1f
[24] = 783C-6 after interference with PFKFB1 si-2, Fig. 1f
[25] = 783C-6 after interference with PFKL si-1, Fig. 1f
[26] = 783C-6 after interference with PFKL si-2, Fig. 1f
[27] = 783C-6 expressing sgNC, Fig. 1g
[28] = 783C-6 expressing sgPFKL-1, Fig. 1g
[29] = 783C-6 expressing sgPFKL-2, Fig. 1g
[30] = HuCCT-1, 72 h, HuCCT1, 72 h, CellTiter-Glo, Fig. 1b
[31] = HuCCT-1, 72 h, HuCCT1 vector, 72 h, Fig. 1j
[32] = HuCCT-1, 72 h, HuCCT1 with PFKL overexpression (ovPFKL), 72 h, Fig. 1j

SMILES	PDX tumor growth compared to the control group [3]	PDX tumor growth compared to the control group [4]	PDX tumor growth compared to the control group [5]	PDX tumor growth compared to the control group [6]	PDX tumor growth compared to the control group [7]	PDX tumor growth compared to the control group [8]	GI50 ([9]; 783C-6, CellTiter-Glo, Fig. 1b) [nM]	GI50 [9, 19] [nM]	GI50 [9, 20] [nM]	GI50 [9, 21] [nM]	GI50 [9, 22] [nM]	GI50 [9, 23] [nM]	GI50 [9, 24] [nM]	GI50 [9, 25] [nM]	GI50 [9, 26] [nM]	GI50 [9, 27] [nM]	GI50 [9, 28] [nM]	GI50 [9, 29] [nM]	GI50 [10] [nM]	GI50 [11, 30] [nM]	further results
Cc1[nH]c2ccccc2c1CCNCc1ccc(/C=C/C(=O)NO)cc1 [Panobinostat, panobinostat]	notably attenuated the growth	no significant disparities	notably attenuated the growth	notably attenuated the growth	notably attenuated the growth	no significant disparities	37.4	48	65.5	56.6	51.5	59	50.5	590	276	52.4	467	250	72.2	244	AUC ([1]; 1405R3 DSRT analysis, area under the dose-response curve): 218.4; DSS ([1]; 1405R3 DSRT analysis, drug sensitivity score): 25.4; MIN ([1]; 1405R3 DSRT analysis, lower asymptote of fitted dose-response curve): 0; EC50 ([1]; 1405R3 DSRT analysis, CellTiter-Glo viability, fitted dose-response curve, Min.Conc.tested 1, Max.Conc.tested 10000, GI50, read-out: EC50): 64.9 nM; DSS ([2]; 783C-6 cells, DSS of DSRT analysis): 31.3; AUC ([2]; 783C-6 cells, area under the dose-response curve): 262.4; MIN ([2]; 783C-6 cells, minimum of dose-response curve): 0.3; EC50 ([2]; read-out: EC50): 22.9 nM; GI50 ([9]; 783C-6 siNC, Fig. 1f): 61.4 nM; GI50 [11, 31]: 285 nM; GI50 [11, 32]: 31.2 nM; GI50 [12]: 162 nM; GI50 [13]: 276 nM; tumor growth [14]: markedly inhibited tumor growth; tumor growth [15]: limited efficacy; tumor growth [16]: markedly inhibited tumor growth; tumor growth [17]: markedly inhibited tumor growth; tumor growth [18]: limited efficacy
C/C=C1\NC(=O)[C@H]2CSSCC/C=C/[C@H](CC(=O)N[C@H](C(C)C)C(=O)N2)OC(=O)[C@H](C(C)C)NC1=O [Romidepsin, romidepsin]	notably attenuated the growth	no significant disparities	notably attenuated the growth	notably attenuated the growth	notably attenuated the growth	no significant disparities	2.55	3.8	3.4	2.5	2.8	3.1	2.9	38.8	11.4	2.9	34.8	15.3	5.5	83.4	AUC [1]: 228.5; DSS [1]: 26.8; MIN [1]: 0; EC50 [1]: 51.3 nM; AUC [2]: 354.8; DSS [2]: 43.7; MIN [2]: 0; EC50 [2]: 2.7 nM; GI50 ([9]; 783C-6, romidepsin alone or combined with PFKL enzymatic activity modifier, Fig. 3b second table): 4.3 nM; GI50 ([9]; 783C-6, romidepsin alone or combined with glycolysis inhibitors, Fig. 3b first table): 3.49 nM; GI50 [11, 31]: 74 nM; GI50 [11, 32]: 3.96 nM; GI50 ([11]; HuCCT-1, HuCCT1, pretreated with peptide or NS for 12 h, then romidepsin 72 h, Fig. 5g): 93.5 nM; GI50 [12]: 64.4 nM; GI50 [13]: 115 nM; tumor growth [14]: markedly inhibited tumor growth; tumor growth [15]: limited efficacy; tumor growth [16]: markedly inhibited tumor growth; tumor growth [17]: markedly inhibited tumor growth; tumor growth [18]: limited efficacy
